≈ marks a conversion by molar mass, not a printed value. Counter-ions that a name gives are not always drawn. Like-named read-outs stand apart in the source and are kept apart here.
Tests used:
acetyl-Histone H4 = test: Histone hyperacetylation in Hela cells (Western Blot); type: cell-based; design: key: represented by the symbol ‘+’ which indicates the relative extent of modulation; ++: represented by the symbol ‘+’ which indicates the relative extent of modulation; +++: represented by the symbol ‘+’ which indicates the relative extent of modulation; ++++: represented by the symbol ‘+’ which indicates the relative extent of modulation; details: 24 hrs, 0.03-3.0 μM
Description: (§1) HeLa Cells were seeded at a density of 0.4×10^6 Cells/well into 6 well plates and incubated for 24 h The compounds were tested at 5 different concentrations (0.03, 0.1, 0.3, 1.0, 3.0 μM) with corresponding control. After 24 hrs cells were lysed and histone proteins were extracted as per established protocols and the extract was used for measuring H3 and H4 hyperacetylation by Western Blot using Anti-acetyl-Histone H3 and Anti-acetyl-Histone H4 (Millipore, USA) antibodies.

acetyl-Histone H3 = test: as above; type: cell-based; design: key: represented by the symbol ‘+’ which indicates the relative extent of modulation; ++: represented by the symbol ‘+’ which indicates the relative extent of modulation; +++: represented by the symbol ‘+’ which indicates the relative extent of modulation; ++++: represented by the symbol ‘+’ which indicates the relative extent of modulation; details: 24 hrs, 0.03-3.0 μM
Description: as §1

[1] = Absolute aqueous solubility; type: physicochemical; details: 25 °C, thermodynamic from solid; water, about 6 hrs equilibration, 25 deg centigrade, UV
Description: The objective of the study was to determine the absolute solubility of the powder form of the test compounds in water. Brief procedure: The powder form of test compounds was allowed to saturate in an aqueous medium and is equilibrated for about 6 hrs until the compound precipitates. The precipitated solution was centrifuged at 15,000 rpm for 10 mins at 25 deg centigrade and the supernatant solution was analyzed by UV spectrometry. If required the supernatant was diluted further until the absorbance by UV spectroscopy was within the limits of the standard curve obtained with the test compound. λmax was selected from UV spectra having maximum absorbance for that compound.

Calu-6 = test: Anti-proliferative activity (GI50); type: cell-based; details: Homo sapiens
Description: (§2) Cells were seeded in a 96-well cell culture plates at a concentration of 10,000 cells per well and incubated at 37° C. in CO2 incubator.
(§3) Twenty-four hours later cells were treated with different concentrations (100, 10, 1, 0.1, and 0.01 μM) of compound dissolved in DMSO and incubated for 48 hours. For To measurement, 24 hours after seeding the cells, 20 μL of 3-(4.5-dimethyl-2- thiazolyl)-2,5-diphenyl-2H-tetrazolium (MTT) solution per well was added to the T0 plate and incubated for 3 hours at 37° C. in a CO2 incubator.
(§4) The plate containing cells and test compounds was treated similarly after 48 hours of incubation. After 3 hours of MTT addition, well contents were aspirated carefully followed by addition of 100 μL DMSO per well. Plates were agitated to ensure dissolution of the formazan crystals in DMSO and absorbance was read at 570 nm (A570). […] From the percentage growths a dose response curve was generated and GI50 values were interpolated from the growth curves.

SH-SY-5Y = test: Anti-proliferative activity (GI50); type: cell-based; details: Homo sapiens, SH-SY5Y, read-out: Anti-proliferative activity (GI50) SH-SY-5Y
Description: as §2, §3, §4

Ca Ski = test: Anti-proliferative activity (GI50); type: cell-based; details: Homo sapiens, read-out: Anti-proliferative activity (GI50) Ca Ski
Description: as §2, §3, §4

K562 = test: Anti-proliferative activity (GI50); type: cell-based; details: Homo sapiens
Description: as §2, §3, §4

MCF-7 = test: Anti-proliferative activity (GI50); type: cell-based; details: Homo sapiens
Description: as §2, §3, §4

HCT-116 = test: Anti-proliferative activity (GI50); type: cell-based; details: Homo sapiens
Description: as §2, §3, §4

RPMI-8226 = test: Anti-proliferative activity (GI50); type: cell-based; details: Homo sapiens
Description: as §2, §3, §4

Hela-S3 = test: Anti-proliferative activity (GI50); type: cell-based; details: Homo sapiens
Description: as §2, §3, §4

IMR-32 = test: Anti-proliferative activity (GI50); type: cell-based; details: Homo sapiens
Description: as §2, §3, §4

Colo-205 = test: Anti-proliferative activity (GI50); type: cell-based; details: Homo sapiens
Description: as §2, §3, §4

U-87-MG = test: Anti-proliferative activity (GI50); type: cell-based; details: Homo sapiens, read-out: Anti-proliferative activity (GI50) U-87-MG
Description: as §2, §3, §4

ACHN = test: Anti-proliferative activity (GI50); type: cell-based; details: Homo sapiens, read-out: Anti-proliferative activity (GI50) ACHN
Description: as §2, §3, §4

KHOS = test: Anti-proliferative activity (GI50); type: cell-based; details: read-out: Anti-proliferative activity (GI50) KHOS
Description: as §2, §3, §4

A431 = test: Anti-proliferative activity (GI50); type: cell-based; details: Homo sapiens
Description: as §2, §3, §4

PANC-1 = test: Anti-proliferative activity (GI50); type: cell-based; details: Homo sapiens
Description: as §2, §3, §4

DU-145 = test: Anti-proliferative activity (GI50); type: cell-based; details: Homo sapiens
Description: as §2, §3, §4

HCT-15 = test: Anti-proliferative activity (GI50); type: cell-based; details: Homo sapiens
Description: as §2, §3, §4

[2] = Calu-6, Table 9, Lung, read-out: Anti-proliferative activity (GI50) Calu-6
[3] = K562, Table 9, Leukemia, read-out: Anti-proliferative activity (GI50) K562
[4] = MCF7, Table 9, Breast, read-out: Anti-proliferative activity (GI50) MCF-7
[5] = HCT-116, Table 9, Colon, read-out: Anti-proliferative activity (GI50) HCT-116
[6] = RPMI-8226, Table 9, Leukemia, read-out: Anti-proliferative activity (GI50) RPMI-8226
[7] = HeLa S3, Table 9, Cervix, read-out: Anti-proliferative activity (GI50) Hela-S3
[8] = IMR-32, Table 9, Brain, read-out: Anti-proliferative activity (GI50) IMR-32
[9] = COLO 205, Table 9, Colon, read-out: Anti-proliferative activity (GI50) Colo-205
[10] = A-431, Table 9, Skin, read-out: Anti-proliferative activity (GI50) A431
[11] = PANC-1, Table 9, Pancreas, read-out: Anti-proliferative activity (GI50) PANC-1
[12] = DU-145, Table 9, Prostate, read-out: Anti-proliferative activity (GI50) DU-145
[13] = HCT-15, Table 9, Colon, read-out: Anti-proliferative activity (GI50) HCT-15

solubility [1]	GI50 (Calu-6; [2])	GI50 (SH-SY-5Y; Table 9, Brain)	GI50 (K562; [3])	GI50 (MCF-7; [4])	GI50 (HCT-116; [5])	GI50 (RPMI-8226; [6])	GI50 (Hela-S3; [7])	GI50 (Colo-205; [9])	GI50 (U-87-MG; Table 9, Brain)	GI50 (ACHN; Table 9, Renal)	GI50 (A431; [10])	GI50 (PANC-1; [11])	GI50 (DU-145; [12])	GI50 (HCT-15; [13])	Compound	Target modulation: H4 acetylation (acetyl-Histone H4)	Target modulation: H3 acetylation (acetyl-Histone H3)	GI50 (Ca Ski; Table 9, Cervix)	GI50 (IMR-32; [8])	GI50 (KHOS; Table 9, Bone)	further results
9400 µg/mL (≈ 23.3 mM)	0.41 ± 0.16 µM	0.34 ± 0.033 µM	0.19 ± 0.05 µM	3.5 ± 2.6 µM	0.1 ± 0.11 µM	0.15 ± 0.05 µM	0.23 ± 0.12 µM	0.31 ± 0.06 µM	0.76 ± 0.66 µM	0.09 ± 0.02 µM	0.28 ± 0.05 µM	1.03 µM	0.079 ± 0.04 µM	9.8 ± 4.3 µM	O=C(/C=C/c1ccc(Cn2cc(-c3ccc(CN4CCCC4)cc3)nn2)cc1)NO [Example 16, N-Hydroxy-3-{4-[4-(4-pyrrolidin-1-ylmethyl-phenyl)-[1,2,3]triazol-1-ylmethyl]-phenyl}-acrylamide]	++++	++	0.42 ± 0.15 µM	0.25 ± 0.07 µM	11.7 ± 1.1 µM	–
230 µg/mL (≈ 0.87 mM)	–	–	–	–	–	–	–	–	–	–	–	–	–	–	O=C(CCCCCCC(=O)Nc1ccccc1)NO [SAHA, Suberoylanilide Hydroxamic Acid, reference compound]	+++	+++	–	–	–	GI50 (Calu-6; Calu-6, read-out: Anti-proliferative activity (GI50) Calu-6): 3.5 ± 0.5 µM; GI50 (SH-SY-5Y): 0.8 ± 0.4 µM; GI50 (Ca Ski): 6 ± 5.3 µM; GI50 (K562; K562, read-out: Anti-proliferative activity (GI50) K562): 2.2 ± 0.7 µM; GI50 (MCF-7; MCF7, read-out: Anti-proliferative activity (GI50) MCF-7): 5.5 ± 1.2 µM; GI50 (HCT-116; HCT-116, read-out: Anti-proliferative activity (GI50) HCT-116): 2.2 µM; GI50 (RPMI-8226; RPMI-8226, read-out: Anti-proliferative activity (GI50) RPMI-8226): 2.2 ± 2.3 µM; GI50 (Hela-S3; HeLa S3, read-out: Anti-proliferative activity (GI50) Hela-S3): 2.9 ± 0.5 µM; GI50 (IMR-32; IMR-32, read-out: Anti-proliferative activity (GI50) IMR-32): 1.8 ± 0.2 µM; GI50 (Colo-205; COLO 205, read-out: Anti-proliferative activity (GI50) Colo-205): 1.6 ± 0.1 µM; GI50 (U-87-MG): 6.7 ± 1.1 µM; GI50 (ACHN): 1.6 ± 0.5 µM; GI50 (KHOS): 29.3 ± 7.2 µM; GI50 (A431; A-431, read-out: Anti-proliferative activity (GI50) A431): 1.9 ± 1 µM; GI50 (PANC-1; PANC-1, read-out: Anti-proliferative activity (GI50) PANC-1): 21.9 µM; GI50 (DU-145; DU-145, read-out: Anti-proliferative activity (GI50) DU-145): 1.3 µM; GI50 (HCT-15; HCT-15, read-out: Anti-proliferative activity (GI50) HCT-15): 5.2 ± 1.9 µM
2900 µg/mL	0.6 ± 0.18 µM	0.2 ± 0.03 µM	0.2 ± 0.08 µM	2.1 ± 2.63 µM	0.2 ± 0.05 µM	0.2 ± 0.25 µM	0.2 ± 0.02 µM	0.2 ± 0.03 µM	1.1 ± 0.73 µM	0.2 ± 0.08 µM	0.2 ± 0.03 µM	4 µM	0.1 ± 0.03 µM	1.7 ± 0.89 µM	O=C(/C=C/c1cccc(Cn2cc(-c3ccc(CN4CCOCC4)cc3)nn2)c1)NO [Example 25, N-Hydroxy-3-{3-[4-(4-morpholin-4-ylmethyl-phenyl)-[1,2,3]triazol-1-ylmethyl]-phenyl}-acrylamide hydrochloride]	++++	++++	0.4 ± 0.28 µM	0.2 ± 0.02 µM	4.6 ± 0.55 µM	–
4700 µg/mL (≈ 11.9 mM)	1.4 ± 0.31 µM	0.2 ± 0.06 µM	0.3 ± 0.074 µM	5.7 ± 1.62 µM	1.2 ± 0.018 µM	0.5 ± 0.43 µM	0.6 ± 0.16 µM	0.3 ± 0.071 µM	2.7 ± 0.74 µM	0.7 ± 0.11 µM	1.2 ± 0.533 µM	6.6 µM	0.3 ± 0.124 µM	4.1 ± 3.2 µM	O=C(NO)c1ccc(Cn2cc(-c3ccc(CN4CCOCC4)cc3)nn2)cc1 [Example 9, N-Hydroxy-4-[4-(4-morpholin-4-ylmethyl-phenyl)-[1,2,3]triazol-1-ylmethyl]-benzamide]	++++	++++	1.2 ± 0.22 µM	0.9 ± 0.201 µM	2.8 ± 0.36 µM	–
11600 µg/mL (≈ 30.7 mM)	0.4 ± 0.12 µM	0.1 µM	0.2 ± 0.04 µM	5.5 ± 1.2 µM	0.2 ± 0.04 µM	0.3 ± 0.16 µM	0.2 ± 0.08 µM	0.4 ± 0.04 µM	1 ± 0.33 µM	0.1 ± 0.04 µM	0.4 ± 0.08 µM	1.4 µM	0.1 ± 0.04 µM	1.8 ± 1.14 µM	CN(C)Cc1ccc(-c2cn(Cc3ccc(/C=C/C(=O)NO)cc3)nn2)cc1 [Example 21]	++++	+++	1.1 ± 0.73 µM	0.2 ± 0.04 µM	10.3 ± 3.26 µM	–

Compound	solubility [1]	GI50 (Calu-6; [2])	GI50 (SH-SY-5Y; Table 9, Brain)	GI50 (K562; [3])	GI50 (MCF-7; [4])	GI50 (HCT-116; [5])	GI50 (RPMI-8226; [6])	GI50 (Hela-S3; [7])	GI50 (Colo-205; [9])	GI50 (U-87-MG; Table 9, Brain)	GI50 (ACHN; Table 9, Renal)	GI50 (A431; [10])	GI50 (PANC-1; [11])	GI50 (DU-145; [12])	GI50 (HCT-15; [13])	Target modulation: H4 acetylation (acetyl-Histone H4)	Target modulation: H3 acetylation (acetyl-Histone H3)	GI50 (Ca Ski; Table 9, Cervix)	GI50 (IMR-32; [8])	GI50 (KHOS; Table 9, Bone)	further results
O=C(NO)c1ccc(Cn2cc(-c3ccc(CN4CCCC4)cc3)nn2)cc1 [Example 8, N-Hydroxy-4-[4-(4-pyrrolidin-1-ylmethyl-phenyl)-[1,2,3]triazol-1-ylmethyl]-benzamide]	5100 µg/mL (≈ 13.5 mM)	0.6 ± 0.33 µM	0.2 ± 0.08 µM	0.3 ± 0.06 µM	2.6 ± 1.26 µM	0.1 ± 0.04 µM	0.4 ± 0.3 µM	0.4 ± 0.09 µM	0.3 ± 0.05 µM	0.5 ± 0.09 µM	0.3 ± 0.14 µM	0.5 ± 0.13 µM	1.3 µM	0.2 ± 0.06 µM	19.3 ± 3.8 µM	++++	+++	1.1 ± 0.49 µM	0.4 ± 0.09 µM	2.4 ± 0.4 µM	–
